According to patent EP0172321B1, “Squarylium charge generating dye and electrophotographic photoconductor” (International Business Machines Corporation, priority 1984, dated 1986):
Several values for one entry are separate records, joined by “and”; a condition that tells them apart may be missing. Equal values may be shown once.

What was measured:
[1] = system: Salmonella typhimurium: TA1535, TA1537, TA1538, TA98 and TA100; experiment: Ames Salmonella/microsome assay, five standard strains; type: cell-based; parameters: unit not given here; conditions: Ames plates, DMSO solvent
Procedure: (§1) This mutagenicity testing was performed using DMSO as the solvent. Six dose levels were tested in duplicate, with and without metabolic activation, in five tester strains (TA1535, TA1537, TA1538, TA98, and TA100). The tests were repeated to ensure reproducibility.
Ames test of the 2,4-di-(o-hydroxy-p-pyrrolidino phenyl) cyclobutene diylium-1,3-diolate (hydroxy pyrrolidino squarylium or OHPYRRSQ) of the present invention dye was conducted.
This compound was examined for mutagenic activity in the Ames Salmonella/microsome assay using the five standard strains of Salmonella typhimurium: TA1535, TA1537, TA1538, TA98 and TA100. All assays were performed in duplicate, both in the presence and the absence of a rat-liver metabolic activation system. DMSO was used as the solvent.
The compound was tested on two separate days at doses ranging from […]. Low-level S-9 was used in the first assay and high-level S-9 was used in the confirming assay.

[2] = Ames test for mutagenicity, tester strain TA1538; type: cell-based, Salmonella typhimurium
Procedure: (§2) Ames test of the prior art dye 2,4-di-(o-hydroxy-p-dimethylamino phenyl) cyclobutene diylium-1,3- diolate was then conducted. This dye is of the type shown in Example 11 of aforesaid US-A-3,824,099.
as §1

[3] = system: TA1538; experiment: Ames test for mutagenicity, tester strain TA1538; type: cell-based, Salmonella typhimurium
Procedure: as §2, §1

[4] = Ames test for mutagenicity, tester strain TA98; type: cell-based, Salmonella typhimurium; conditions: read-out: TA98 × background
Procedure: as §2, §1

[5] = system: TA98; experiment: Ames test for mutagenicity, tester strain TA98; type: cell-based, Salmonella typhimurium
Procedure: as §2, §1

[6] = purified dye, dimethylamino phenol precursor distilled, DMSO solvent, replicate Test no./Assay no.
[7] = without purification of the dye, replicate Assay no.

Row | Compound | Dose level at and above which precipitate was observed [1] | fold induction ([2]; ames ta1538, purified dye, dimethylamino phenol precursor distilled, DMSO solvent, replicate Test no./Assay no., read-out: TA1538 × background) | fold induction ([2]; ames ta1538, without purification of the dye, replicate Assay no., read-out: TA1548 × background) | TA1538 × background [3, 6] | TA1548 × background [3, 7] [× background] | fold induction ([4]; ames ta98, purified dye, dimethylamino phenol precursor distilled, DMSO solvent, replicate Test no./Assay no.) | fold induction ([4]; ames ta98, without purification of the dye, replicate Assay no.) | TA98 × background [5, 6] | TA98 × background [5, 7] [× background]
1 | O=C1C(=C2C=CC(=[N+]3CCCC3)C=C2O)C([O-])=C1c1ccc(N2CCCC2)cc1O [OHPYRRSQ, 2,4-di-(o-hydroxy-p-pyrrolidinophenyl) cyclobutene diylium-1,3-diolate] | ≥ 500 |  |  |  |  |  |  |  | 
2 | CN(C)c1ccc(C2=C([O-])C(=C3C=CC(=[N+](C)C)C=C3O)C2=O)c(O)c1 [OHSQ, 2,4-di-(o-hydroxy-p-dimethylaminophenyl) cyclobutene diylium-1,3-diolate] |  | 2.9 | 4.9 | 2.9 × background and 2.8 × background and 3.3 × background | 6.8 | 2.4 | 2.6 | 2.3 × background and 2.7 × background and 2.90 × background | 3.3
